The values below come from patent US9238055B2, “Peptide bone forming peptide 4 for promoting osteogenesis or vascularization and use thereof” (Chonnam National University Hospital, priority 2011, dated 2016).

The data set has as its system mesenchymal stem cells. Briefly: MTT assay for cytotoxicity. Format: cell-based, mouse. To be noted: at concentrations effective for promoting osteogenic differentiation; FIG. 3. The method, then: At concentrations effective for calcium deposition, BFP 4 was analyzed for cytotoxicity. In this context, MTT ((3-(4,5-Dimethylthiazol-2-yl)-2,5-diphenyltetrazolium bromide, a yellow tetrazole) assay was performed using an MTT Cell Proliferation Assay Kit (Cayman Chemical) according to the instructions of the manufacturer.

Where no end group is shown, it is not given here.

In the case of “FFKATEVHFRSIRST [BFP 4, Phe-Phe-Lys-Ala-Thr-Glu-Val-His-Phe-Arg-Ser-Ile-Arg-Ser-Thr]”, the “Cytotoxicity (MTT)” value is given as “no cytotoxicity was detected”.
